Measured values: US5912231A, “Substitution analogues of magainin peptides” (priority 1994, dated 1999)
Where two headings read alike, the source gives them in different places. Residues, ends and D or L forms follow the SMILES beside them.

Legend:
Type in all cases: cell-based
[1] = system: Staphylococcus epidermidis; settings: 6 h
Method: (§1) Antimicrobial assays (for Examples 3 to 27) were carried out in 96-well tissue culture plates. Each well was incubated with a given microorganism (Escherichia coli, Staphylococcus epidermidis, Staphylococcus aureus, or Pseudomonas aeruginosa) suspended in LB medium (Examples 3-17), or TSB medium (Examples 18-27). Upon the addition of Magainin I or its substitution analogues, (dissolved in 1×PBS, pH 7.0) each well contained a final cell density of 1.0×10^6 colony forming units (CFU)/ml. The final peptide concentrations used were 100 μg/ml., 75.0 μg/ml, 50.0 μg/ml, 25 μg/ml, 12.5 μg/ml, 10 μg/ml, 5μg/ml, 2.5 μg/ml, and 1.25 μg/ml.
(§2) Addition of peptides to the wells was defined as time zero. At six hours, the plates were placed in a Titertek Multiskan apparatus and the O.D.620 determined. The plates as well as the initial innoculum were incubated at 37° C.
(§3) Five wells per plate contained media alone, while five others contained medium plus cells. These controls were used to eliminate the possibility of media contamination while providing a measure of uninhibited growth of the microorganisms.
(§4) The degree of peptide activity was determined by comparing the substitution analogues with uninhibited growth of the control cells over a six-hour period.

Pseudomonas aeruginosa = settings: TSB medium, 6 h
Method: as §1, §2, §3, §4

Escherichia coli = settings: 6 h
Method: as §1, §2, §3, §4

Staphylococcus aureus = settings: at 50 μg/ml peptide; LB medium; 6 h
Method: as §1, §2, §3, §4

[2] = at 10 μg/ml peptide, TSB medium
[3] = at 25 μg/ml peptide, TSB medium

CC[C@H](C)[C@H](NC(=O)CN)C(=O)NCC(=O)N[C@@H](CCCCN)C(=O)N[C@@H](CCCCN)C(=O)N[C@@H](CC(C)C)C(=O)N[C@@H](Cc1c[nH]cn1)C(=O)N[C@@H](CCCCN)C(=O)N[C@@H](CCCCN)C(=O)NCC(=O)N[C@@H](CCCCN)C(=O)N[C@@H](Cc1ccccc1)C(=O)NCC(=O)N[C@@H](CCCCN)C(=O)N[C@@H](Cc1ccccc1)C(=O)N[C@@H](CCCCN)C(=O)NCC(=O)N[C@@H](C)C(=O)N[C@H](C(=O)N[C@@H](CC(C)C)C(=O)N[C@@H](CCCCN)C(=O)N[C@@H](C)C(=O)O)[C@@H](C)CC [Example 8] (H-GIGKKLHKKGKFGKFKGAILKA-OH)
100%: % effective growth inhibition of S. epidermidis ([1]; at 5 μg/ml peptide, TSB medium) | % effective growth inhibition of S. epidermidis [1, 2] | % effective growth inhibition of S. epidermidis [1, 3] | % effective growth inhibition of S. epidermidis ([1]; at 50 μg/ml peptide, LB medium) | % effective growth inhibition of S. epidermidis ([1]; at 75 μg/ml peptide, LB medium) | % effective growth inhibition of P. aeruginosa (Pseudomonas aeruginosa; at 5 μg/ml peptide) | % effective growth inhibition of P. aeruginosa (Pseudomonas aeruginosa; at 10 μg/ml peptide) | % effective growth inhibition of P. aeruginosa (Pseudomonas aeruginosa; at 25 μg/ml peptide) | % effective growth inhibition of E. coli (Escherichia coli; at 5 μg/ml peptide, LB medium) | % effective growth inhibition of E. coli (Escherichia coli; at 5 μg/ml peptide, TSB medium) | % effective growth inhibition of E. coli (Escherichia coli; [2]) | % effective growth inhibition of E. coli (Escherichia coli; at 25 μg/ml peptide, LB medium) | % effective growth inhibition of E. coli (Escherichia coli; [3]) | % effective growth inhibition of E. coli (Escherichia coli; at 75 μg/ml peptide, LB medium) | % effective growth inhibition of E. coli (Escherichia coli; at 100 μg/ml peptide, LB medium)

GIGKFILHAAGKFGKAFVGIMKS (GIGKFLHAAGKFGKAFVGIMKS) [Magainin I, residue 19 deleted, residue 8 alanine]
100%: % effective growth inhibition of S. epidermidis ([1]; at 25 μg/ml peptide, LB medium) | % effective growth inhibition of S. aureus (Staphylococcus aureus) | % effective growth inhibition of E. coli (Escherichia coli; at 2.5 μg/ml peptide, LB medium)
